Molecules are shown by their SMILES. Structures can show the parent of a compound that is named as a salt.

Experiment [1] concerns phenyl-p-benzoquinone induced writhing in mice. The experiment is described as follows: mouse antiphenylquinone writhing test at 40 minutes, oral nalbuphine.HCl / calcium aspirin (Method 2). The format is in vivo, mouse (Male CF1). The procedure: (§1) Male CF1 mice obtained from Charles River Breeding Laboratories, fasted for 16-22 hours, and weighing 18-22 g at the time of testing are used throughout. All mice are dosed sequentially by the oral route with suspensions of acetylsalicylic acid and/or of nalbuphine solutions (Method 1) or of calcium acetylsalicylate (calcium aspirin) and/or of nalbuphine solutions (Method 2). In each case the aspirin component is calculated as the equivalent free acid content, and nalbuphine is calculated as the hydrochloride salt. A dosing volume of 10 ml/kg is used for each sequential solution or suspension. All doses are coded and the test is performed under a code not known to the observer.
A stock solution of calcium aspirin is prepared by mixing 4.032 gm of aspirin and 1.120 gm of precipitated calcium carbonate with 50 ml of distilled water at 40°-50° C. until the solids are completely dissolved, then diluting to 60 ml with distilled water at ambient temperature to obtain a solution containing 67.2 mg/ml of aspirin equivalent. All dosing solutions are prepared by dilution of the stock solution with distilled water; the vehicle control is distilled water. All solutions are used within two hours of preparation, then discarded.
Stock solutions of nalbuphine.HCl are prepared as described for Method 1.
(§2) A standard procedure for detecting and comparing the analgetic activity of different classes of analgesic drugs for which there is a good correlation with human analgetic activity is the prevention of phenyl-p-benzoquinone induced writhing in mice [H. Blumberg et al., Proc. Soc. Exp. Biol. Med., 118, 763-766 (1965)].
(§3) Mice, intubated with various doses of nalbuphine.HCl, aspirin suspensions (Method 1), calcium aspirin solution (Method 2), or immediately sequential doses of nalbuphine.HCl and of the aspirin preparations as defined further, or of the respective vehicles, are injected intraperitoneally with a standard challenge dose of phenyl-p-benzoquinone 5 min. prior to a designated observation period. The phenyl-p-benzoquinone is prepared as a 0.1 mg/ml solution in 5% by volume of ethanol in water; the writhing dose is 1.25 mg/kg injected at a volume of 0.25 ml/20 g. For scoring purposes a "writhe" is indicated by whole body stretching or contraction of the abdomen during a 10 min. observation period beginning 5 min. after receiving the phenyl-p-benzoquinone dose. Each mouse is used only once, then discarded.
(§4) All ED50 values and their 95% confidence limits are determined numerically by the methods of Thompson [W. F. Thompson, Bacteriological Rev., 11, 115-145 (1947)], Litchfield and Wilcoxon [J. T. Litchfield, Jr. and F. Wilcoxon, J. Pharm. Exp. Ther., 96, 99-113 (1949)], or Finney [D. J. Finney, "Probit Analysis," third edition, Cambridge University Press, Cambridge, England, (1971)].
Rev., 9, 237-242 (1957)] in FIG. 1. […] In the isobolographic figures, the analgetic effects of nalbuphine alone are presented on the Y axis and of aspirin alone (or calcium aspirin, expressed as aspirin equivalent dosages) on the X axis. The dotted lines radiating from the origin represent the fixed dosage ratios of nalbuphine.HCl:aspirin in the ranges of 1:2.44 to 1:60.9 and 1:1.76 to 1:61.7 for FIGS. 1 and 2, respectively. […] The arrows extending above and below each ED50 point represent the 95% confidence limits of the ED50's.
The solid line connecting the ED50 dosages of nalbuphine (alone) and aspirin (alone) represents the "ED50 addition line," which indicates the expected location of the ED50's for nalbuphine and aspirin combinations if simple additivity were to describe their combined effects. The 95% confidence range for the ED50 addition line is shown by the area between the broken lines above and below the ED50 addition line. […]
In general terms: In writhing tests, fewer writhes than in controls are read as antinociception.

The test system is the same in experiment [2]. The experiment is described as follows: mouse antiphenylquinone writhing test at 20 minutes, oral nalbuphine.HCl / aspirin suspension (Method 1). The format is in vivo, mouse (Male CF1). The procedure:
as §1
A stock suspension of aspirin is prepared by mixing 2.016 gm aspirin with 40 ml of an aqueous vehicle containing 2% by volume of Tween 80®, a pharmacological dispersant manufactured by Fisher Scientific Company and containing 100% polysorbate 80, and 1% by weight of Methocel® MC powder, a pharmacological suspending agent manufactured by DOW Chemical Company and containing 100% methylcellulose, in distilled water. The mixture is sonicated at 150 watts for 10-15 seconds with an ultrasound system, then shaken for 1 hour at 280 oscillations/minute with 15-20 gm of glass beads. The resultant suspension contains 50.4 mg/ml of aspirin; all dosing suspensions are prepared by dilution of the stock suspension with the Methocel®/Tween 80® vehicle; the vehicle control is Methocel®/Tween 80®. All suspensions are used within two hours of preparation, then discarded.
Stock solutions of nalbuphine.HCl are prepared by dissolving dry nalbuphine hydrochloride powder with distilled water. All dosing solutions are prepared by dilution of the stock solutions with distilled water; the vehicle control is distilled water.
as §2, §3, §4
Rev., 9, 237-242 (1957)] in FIG. 1. […] In the isobolographic figures, the analgetic effects of nalbuphine alone are presented on the Y axis and of aspirin alone (or calcium aspirin, expressed as aspirin equivalent dosages) on the X axis. The dotted lines radiating from the origin represent the fixed dosage ratios of nalbuphine.HCl:aspirin in the ranges of 1:2.44 to 1:60.9 and 1:1.76 to 1:61.7 for FIGS. 1 and 2, respectively. […] The arrows extending above and below each ED50 point represent the 95% confidence limits of the ED50's. […]

Usually ED50 stands for the dose at which the effect has come halfway, by size or by number of responders. As for `Oc1ccc2c3c1O[C@H]1[C@@H](O)CC[C@@]4(O)[C@@H](C2)N(CC2CCC2)CC[C@]314` [Nalbuphine . HCl, (-)17-(cyclobutylmethyl)-4,5α-epoxymorphinan-3,6α,14-triol], the “ED50 at 40 MIN., Nalbuphine . HCl (component)” value in experiment [1] (N = 54 mice/dose) was determined as 42.6 mg/kg. Further, the “% MICE BLOCKED” value was 13.0% in experiment [1] (nalbuphine.HCl 5.45 mg/kg alone); 16.7% in experiment [1] (nalbuphine.HCl 10.9 mg/kg, aspirin 0); 27.8% in experiment [1] (nalbuphine.HCl 21.8 mg/kg, aspirin 0); 50.0% in experiment [1] (nalbuphine.HCl 43.6 mg/kg, aspirin 0); 74.1% in experiment [1] (nalbuphine.HCl 87.2 mg/kg, aspirin 0); 0% in experiment [2] (nalbuphine.HCl 5.18 mg/kg, aspirin 0). Besides, the “% MICE BLOCKED” value amounted to 16.7% in experiment [2] (nalbuphine.HCl 10.4 mg/kg, aspirin 0); 50.0% in experiment [2] (nalbuphine.HCl 20.7 mg/kg, aspirin 0); 62.5% in experiment [2] (nalbuphine.HCl 41.4 mg/kg, aspirin 0). Besides, the “ED50 at 20 MIN., Nalbuphine . HCl (component)” value in experiment [2] (N = 24 mice/dose) is 26.1 mg/kg.

For the compound `CC(=O)Oc1ccccc1C(=O)O` [Aspirin, acetylsalicylic acid], the “ED50 at 20 MIN., Aspirin (component)” value in experiment [2] (N = 24 mice/dose) was 206 mg/kg. Besides, the “% MICE BLOCKED” value in experiment [2] (nalbuphine.HCl 0, aspirin 63 mg/kg) is recorded as 8.3%; in experiment [2] (nalbuphine.HCl 0, aspirin 126 mg/kg), 37.5%; in experiment [2] (nalbuphine.HCl 0, aspirin 252 mg/kg) it was 58.3%; in experiment [2] (nalbuphine.HCl 0, aspirin 504 mg/kg) it was 79.2%.

Consider `CC(=O)Oc1ccccc1C(=O)O` [calcium aspirin, calcium acetylsalicylate], for which the “ED50 at 40 MIN., Aspirin (component; calcium aspirin as equivalent free aspirin)” value in experiment [1] (N = 54 mice/dose) was 171 mg/kg. Moreover, the “% MICE BLOCKED” value in experiment [1] (nalbuphine.HCl 0, aspirin equiv. 48 mg/kg) came to 7.4%; in experiment [1] (nalbuphine.HCl 0, aspirin equiv. 96 mg/kg), 13.0%; in experiment [1] (nalbuphine.HCl 0, aspirin equiv. 192 mg/kg) it was 63.0%; in experiment [1] (nalbuphine.HCl 0, aspirin equiv. 384 mg/kg) it was 87.0%.

(Values after patent US4282215A, “Analgesic mixture of nalbuphine and acetylsalicylic acid, derivative or salt thereof” (E. I. Du Pont de Nemours and Company, priority 1980, dated 1981).)
